Here are results for three compounds from ChEMBL document CHEMBL4007476, “Chemical synthesis, redox transformation, and identification of sonnerphenolic C, an antioxidant in Acer nikoense” (Bioorg Med Chem Lett, 2017).

Series [1] is described as follows: Antioxidant activity assessed as DPPH radical scavenged per mole of compound after 20 mins. Format: functional.
Series [2] addresses T1, Tyrosinase (Homo sapiens, UniProt P14679).
T1 sequence (P14679 whole entry): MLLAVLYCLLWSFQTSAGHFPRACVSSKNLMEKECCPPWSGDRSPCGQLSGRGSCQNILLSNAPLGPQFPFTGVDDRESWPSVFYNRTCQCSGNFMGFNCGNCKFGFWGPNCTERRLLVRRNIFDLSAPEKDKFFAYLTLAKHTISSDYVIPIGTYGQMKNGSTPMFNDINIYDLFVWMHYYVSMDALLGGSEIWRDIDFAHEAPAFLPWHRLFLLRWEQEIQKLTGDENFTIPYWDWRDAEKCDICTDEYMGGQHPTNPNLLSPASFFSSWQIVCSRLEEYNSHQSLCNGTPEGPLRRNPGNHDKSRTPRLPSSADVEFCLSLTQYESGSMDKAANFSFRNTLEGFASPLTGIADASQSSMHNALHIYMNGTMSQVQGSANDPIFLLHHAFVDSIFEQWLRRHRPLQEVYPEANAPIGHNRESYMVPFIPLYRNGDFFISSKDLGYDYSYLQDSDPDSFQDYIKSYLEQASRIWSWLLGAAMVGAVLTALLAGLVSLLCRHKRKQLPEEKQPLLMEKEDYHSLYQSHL
Kind of series: Drug level treated with 10 mM epirhododendrin assessed as tyrosinase (unknown origin)-mediated redox transformation in presence of vitamin C by HPLC analysis. Format: ADME.

The target in series [3] is T1, Tyrosinase. Briefly: Drug metabolism assessed as tyrosinase (unknown origin)-mediated redox transformation by measuring sonnerphenolic C formation at 10 mM in presence of vitamin C by HPLC analysis. Conditions: 10000 µM. The class given is ADME.

VITAMIN E: the Activity in series [1] amounted to 1.86 mol.
Regarding `C[C@@H](CCc1ccc(O)c(O)c1)O[C@@H]1O[C@H](CO)[C@@H](O)[C@H](O)[C@H]1O`, on Tyrosinase [2], the Drug metabolism entry is reported as “Metabolite_Detected”. Also, the Activity in series [1] came to 2.23 mol.
In the case of `C[C@@H](CCc1ccc(O)cc1)O[C@@H]1O[C@H](CO)[C@@H](O)[C@H](O)[C@H]1O`, the Activity in series [1] is 0 mol. For the same compound, the Drug metabolism entry at Tyrosinase [3] is on record as “Metabolite_Detected”.
